# Source: US20160120938A1, “P2X7 RECEPTOR AGONIST FOR USE IN PREVENTING OR TREATING KIDNEY INJURY” (UCL BUSINESS PLC, priority 2013, published 2016)
# Legend:
# Type in all cases: in vivo
# P2X7R [1] = target: T1, P2X7R (Rattus norvegicus, UniProt Q64663); assay: Creatinine in BDL rats given LPS infusion with intra-renal P2X7R agonist; conditions: LPS 0.25 mg/kg iv over 3 hours
# T1 construct: upregulation of the tubular expression of the P2X7R; from tissue; host or cells: kidney of living Sprague-Dawley rats (sham, BDL, BDL+LPS); compounds dosed in vivo
# T1 sequence (Q64663 1-595): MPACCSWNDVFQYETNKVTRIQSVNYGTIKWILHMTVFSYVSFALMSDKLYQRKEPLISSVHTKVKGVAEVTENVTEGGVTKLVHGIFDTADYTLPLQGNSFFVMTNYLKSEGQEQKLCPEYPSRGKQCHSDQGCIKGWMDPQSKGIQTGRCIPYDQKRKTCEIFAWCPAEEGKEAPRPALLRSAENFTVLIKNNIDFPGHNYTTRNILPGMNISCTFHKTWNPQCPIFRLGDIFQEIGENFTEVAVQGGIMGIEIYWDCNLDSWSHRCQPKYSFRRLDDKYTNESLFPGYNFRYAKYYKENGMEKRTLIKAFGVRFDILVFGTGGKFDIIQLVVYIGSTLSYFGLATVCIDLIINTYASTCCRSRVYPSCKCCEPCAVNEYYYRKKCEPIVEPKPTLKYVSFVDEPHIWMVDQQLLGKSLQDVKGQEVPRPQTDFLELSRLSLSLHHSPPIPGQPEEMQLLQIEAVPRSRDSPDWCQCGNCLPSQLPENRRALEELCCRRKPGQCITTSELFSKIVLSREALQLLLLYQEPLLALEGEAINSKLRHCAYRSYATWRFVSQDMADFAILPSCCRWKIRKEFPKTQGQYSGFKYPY
# Text: (§1) These experiments utilised an established animal model of cirrhosis, the bile duct ligated (BDL) rat. BDL rats may be generated by methods known in the art. For example, male Sprague-Dawley rats (200-250 g) may be used for this procedure. Following anaesthetisation, a mid-line laparotamy may be performed, the bile duct exposed, triply ligated with 4.0 silk suture, and severed between the second and third ligature. The wound is then closed in layers with absorbable suture, and the animal allowed to recover in a quiet room before being returned to the animal storage facility. Sham animals underwent sham laparotomy. The BDL model was studied 4 weeks after bile duct ligation and liver histology confirmed advanced fibrosis.
# Rats were given a continuous intravenous infusion of LPS at 0.25 mg/kg over 3 hours. The P2X7R agonist BzATP was infused into the renal artery 30 mins before LPS infusion began and continued for the duration of the experiment at a dose of 150 μg/hour.
# P2X7R [2] = target: T1, P2X7R; assay: P2X7 receptor expression in kidneys, cirrhotic AKI model (BDL rat + LPS), immunohistochemistry; conditions: 300 μmol/kg IP 12-hourly for 7 days, with or without LPS 0.5 mg/kg IP, n=3 in each group, FIG. 3
# Text: as §1
# (§2) LPS (lipopolysaccharide) was given at a dose of 0.5 mg/kg intra-peritoneal. The P2X7R antagonist (A-438079) was given at a dose of 300 μmol/kg 12-hourly 7 days before LPS was given (if applicable). Animals were terminated 3 hours post LPS dose. P2X7RA=P2X7R antagonist.
# Urine was collected for assessment of urinary biomarkers of acute kidney injury (AKI). Blood was collected for biochemistry, endotoxin and cytokine analysis. Tissue was collected for histology, immunohistochemistry and western blot. Brain frontal cortex was collected to ascertain brain water. Biochemistry was measured using COBAS integra. Urinary NGAL was measured by ELISA. […]
# P2X7R [3] = target: T1, P2X7R; assay: Biomarkers of acute kidney injury in cirrhotic AKI model (BDL rat + LPS) with P2X7R antagonist; conditions: 300 μmol/kg 12-hourly 7 days before LPS 0.5 mg/kg IP, terminated 3 hours post LPS
# Text: as §1, §2
# Urine was collected for assessment of urinary biomarkers of acute kidney injury (AKI). Blood was collected for biochemistry, endotoxin and cytokine analysis. Tissue was collected for histology, immunohistochemistry and western blot. Brain frontal cortex was collected to ascertain brain water. Biochemistry was measured using COBAS integra. Urinary NGAL was measured by ELISA.
molecule,measurement,setting,value
2′(3′)-O-(4-Benzoylbenzoyl)adenosine-5′-triphosphate [BzATP],Creatinine (mean),"P2X7R [1]; BDL + LPS + BzATP group, 150 μg/hour into renal artery",57.93 µmol/L
same,reduction of LPS induced rise in creatinine,"P2X7R [1]; BDL rat, infused into renal artery 150 μg/hour from 30 mins before LPS, FIG. 7",24%
Clc1cccc(-c2nnnn2Cc2cccnc2)c1Cl [A-438079],increased P2X7 receptor expression in kidneys (tubular expression) of BDL and BDL+LPS animals,P2X7R [2],attenuated
same,"biomarkers of acute kidney injury (urine NGAL, creatinine) compared to the other groups",P2X7R [3]; FIG. 4,greater
same,"biomarkers of acute kidney injury (urine NGAL, creatinine) compared to the other groups","P2X7R [3]; FIG. 4, listed as P2X7R antagonist",higher
